Here are results for 1 compound from patent publication US20140187594A1, “DIPHENYL ETHER COMPOUNDS FOR THE TREATMENT OF LIVER, LUNG DISORDERS, DIABETIC COMPLICATIONS AND CARDIOVASCULAR DISEASES” (ORCHID CHEMICALS AND PHARMACEUTICALS LTD, priority 2010, published 2014).

For assay [1], the system named is bleomycin induced lung fibrosis. Nature of the assay: Bleomycin induced lung fibrosis (prophylactic). The class given is in vivo, C57BL/6 mice. Particulars: 100 mg/kg p.o., 7 days before and 14 days after bleomycin; FIGS. 26 & 27. The protocol:
Female C57BL/6 mice were used in this study. Animals were divided into four groups based on their body weight. To induce fibrosis bleomycin was administered at 0.1 U/animal (volume 50 μL) intratracheally to Group II (Disease control), Group III and Group IV, whereas Group I (Normal control) received only saline. The bleomycin challenged Group III and Group IV animals were treated with pentoxifylline (20 mg/kg p.o.) and compound of formula (A) (100 mg/kg p.o.) respectively, whereas Group I and the bleomycin challenged Group II animals received vehicle for 7 days before and 14 days after bleomycin administration. Body weight, feed and liquid intake and mortality rate were recorded. At the end of the study, animals were bled and plasma was stored in deep freezer (−80° C.) for biochemical parameters estimation. Then, the animals were sacrificed and lung tissue harvested and weighed. Right lung tissue was stored in deep freezer (−80° C.) for expression study and drug concentration analysis. The left lung tissues was fixed in formalin (10%) by slow infusion, then immersed and preserved in formalin (10%) for histopathology examination.

The test system of another assay is TNF-α. As to the kind of experiment: LPS induced TNF-α level in NAFLD/NASH mice. As to conditions: 100 mg/kg orally 28 days, LPS 500 μg/animal i.p., FIG. 28. The class given is in vivo. The source says:
To develop NAFLD/NASH model, the same protocol was followed as mentioned in Experiment-2. After induction, animals were further grouped as follows. Animals fed normal chow diet (n=10) served as a normal control (Group I) and animals fed HFD and HFL were further divided into two groups as disease control (Group II) (n=10) and treatment group (Group III) (n=9). Duration of the treatment was 28 days. During this period Group I and Group II animals were received water as vehicle and Group III animals were treated with compound of formula (A) 100 mg/kg orally. On 27th day, animals were kept for 12 hours fasting and on 28th day, after 60 minutes of treatment, animals were challenged with LPS (500 μg/animal) by intraperitoneal route. Then after 90 minutes of LPS challenge, blood collection was carried out, plasma and serum were separated and stored at −80° C. in deep freezer for further analysis. Following blood collection, animals were sacrificed; liver, inguinal and epididymal fats were collected and weighed.
(§1) The parameters like Glucose, ALT, AST, TC, TG (Clinical chemistry analyzer Erba XL 300), insulin (Linco®-CA, Product code: EZRMI-13K) and TNFα (GE Healthcare, Amersham, UK. Product code: RPN2718) were measured using commercially available kits. NEFA was measured in serum using commercially available NEFA C kit (Product code No: 279-75401, Wako pure chemical industries ltd., Japan).

The next assay concerns DIO mice. Nature of the assay: Insulin resistance (HOMA-IR) in diet induced obese mice. Particulars: 30 mg/kg for 28 days, FIG. 22. The class given is in vivo, C57BL/6 mice. The protocol:
The animal model with obesity with insulin resistance was developed by feeding 60 Kcal % high fat diet, which simulates several features of human obesity and insulin resistance. These features were treated as mentioned below. […] C57BL/6 male mice aged 6-8 weeks, and body weight ranges between 16-22 g were used. Animals were divided into two groups. First group (n=10) was treated as a normal control fed chow feed (Nutri Labe Rodent, Tetragon Chemie Pvt. Ltd., Bangalore) and the second group (n=25) fed 60 Kcal % high fat diet (HFD) (Research Diets, New Brunswick, N.J., Cat# D12492 with blue dye) for 120 days. At the end of induction period the animals were selected based on insulin resistance for further study. […] During this period, body weight and feed intake was recorded daily. […]
as §1

The next assay relates to HC-HF diet fed Hamsters. As to the kind of experiment: HC-HF diet fed dyslipidemic hamsters. As to conditions: 28 days. The class given is in vivo, Golden Syrian hamsters. The protocol: Dyslipidemia in hamsters were developed by feeding supranutritional diet with fructose liquid (10%) which simulates features of dyslipidemia in human. These features were treated as mentioned below. Thirty male Golden Syrian hamsters aged 14-16 weeks, body weight ranges between 100-160 g were used for this study. Animals were divided into two groups. First group (n=7) was treated as a normal control and was fed with chow feed (Nutri Lab® Rodent, Tetragon Chemie Pvt. Ltd., Bangalore) and the second group (n=23) was fed with HC-HF diet (in-house made), the composition of which were Corn oil 11.50%, Coconut oil 11.50%, Cholesterol 0.50%, Sodium cholate 0.25% and Nutri Lab® feed 76.25% and animals were provided with 10% fructose in the drinking water. […] During this period, animal body weight was recorded daily. […]
The dyslipidemic model was developed in the protocol as mentioned in experimental 4. […] During this period, animal body weight was recorded daily. […]
as §1

`COC(=O)[C@@H](N)Cc1ccc(Oc2ccc(CC3SC(=O)NC3=O)cc2)cc1` (stereo partly drawn) [Compound of formula (A), Methyl(2S)-2-amino-3-(4-{4-[(2,4-dioxo-1,3-thiazolidin-5-yl)methyl]phenoxy}phenyl)propanoate]: the “lung fibrosis formation (histopathology)” value in assay [1] is “significantly prevents fibrosis formation”. The TNF-α levels entry with TNF-α is recorded as “reduction”. Besides, the HOMA-IR entry in the assay on DIO mice was “improvement in HOMA-IR”. For the same compound, in the assay on HC-HF diet fed Hamsters (30 and 100 mg/kg p.o., FIG. 15), the NEFA result is given as “significant reduction”. In addition, the “plasma TG” value with HC-HF diet fed Hamsters ((A) 30 and 100 mg/kg, disodium salt of (C) 10 and 30 mg/kg p.o., FIGS. 14 & 29) is on record as “significant reduction”.
